{"source": "patent US20260126455A1", "about": "“Methods and Dosing Regimens for Preventing or Delaying Onset of Alzheimer's Disease and Other Forms of Dementia and Mild Cognitive Impairment” (priority 2020, published 2026)", "key": {"[1]": {"conditions": "human, in vivo; cited from earlier work"}, "[2]": {"test_system": "lipoprotein-associated phospholipase-A2", "conditions": "in vivo; cited from earlier work"}, "[3]": {"conditions": "over 20 epidemiological clinical trials; cited from earlier work"}, "5HT6 receptor": {"target": "5HT6 receptor (Homo sapiens, UniProt P50406)", "sequence (P50406 whole entry)": "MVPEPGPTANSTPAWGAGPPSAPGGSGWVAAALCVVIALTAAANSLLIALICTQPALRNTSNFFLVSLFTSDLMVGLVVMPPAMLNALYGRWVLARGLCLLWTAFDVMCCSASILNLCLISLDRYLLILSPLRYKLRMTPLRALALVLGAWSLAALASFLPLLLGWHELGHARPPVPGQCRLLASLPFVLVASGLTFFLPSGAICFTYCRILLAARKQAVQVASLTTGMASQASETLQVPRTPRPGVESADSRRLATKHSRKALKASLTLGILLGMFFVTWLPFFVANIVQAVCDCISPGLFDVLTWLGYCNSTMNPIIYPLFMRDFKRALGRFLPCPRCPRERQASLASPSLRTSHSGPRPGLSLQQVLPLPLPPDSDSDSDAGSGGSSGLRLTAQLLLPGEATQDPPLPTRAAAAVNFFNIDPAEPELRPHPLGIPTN", "conditions": "in vivo; cited from earlier work"}, "beta-secretase": {"target": "T1, beta-secretase (Homo sapiens, UniProt P56817)", "T1 construct": "from tissue; host or cells: clinical-trial subjects (in vivo)", "T1 sequence (P56817 46-501)": "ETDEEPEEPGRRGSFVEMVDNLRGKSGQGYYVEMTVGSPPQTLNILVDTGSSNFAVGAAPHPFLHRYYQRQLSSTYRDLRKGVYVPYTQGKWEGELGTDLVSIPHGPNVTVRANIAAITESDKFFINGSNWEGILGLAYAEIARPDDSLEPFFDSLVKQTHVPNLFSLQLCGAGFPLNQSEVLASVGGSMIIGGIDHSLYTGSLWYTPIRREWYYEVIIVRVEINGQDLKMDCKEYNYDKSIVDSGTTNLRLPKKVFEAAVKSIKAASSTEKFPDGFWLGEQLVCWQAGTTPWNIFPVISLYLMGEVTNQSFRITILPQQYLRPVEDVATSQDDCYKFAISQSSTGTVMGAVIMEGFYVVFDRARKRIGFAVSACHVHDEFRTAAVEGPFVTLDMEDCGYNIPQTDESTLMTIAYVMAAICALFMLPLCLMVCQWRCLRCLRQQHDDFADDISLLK", "conditions": "in vivo; cited from earlier work"}, "SK-N-MC neurons [4]": {"test_system": "SK-N-MC neurons", "assay": "Morphological scoring of SK-N-MC cells exposed to Abeta42 plus A7R compounds", "type": "cell-based, human"}, "SK-N-MC neurons [5]": {"test_system": "SK-N-MC neurons", "assay": "Abeta42 immunocytochemistry: intracellular Abeta42 labeling in SK-N-MC cells exposed to Abeta42 plus A7R compounds", "type": "cell-based, human"}, "[6]": {"test_system": "A7R-transfected SK-N-MC human neuroblastoma cells", "conditions": "cited from earlier work; for Intracellular accumulation of the peptide: 100 nanomolar"}, "[7]": {"test_system": "Human neuroblastoma SK-N-MC cells, transfected with A7R", "conditions": "100 nanomolar for 6 hours; cited from earlier work"}, "C57BL/6J mice": {"test_system": "C57BL/6J mice", "assay": "CognitionWall discrimination learning test, 2-week study", "type": "in vivo", "procedure": "This 2-week study was comprised of 2 groups of C57BL/6J mice as outlined in Table 5. Mice were infused with 100 μl pertussis toxin (3.0×10−3 μg/μl in saline) or 100 μl saline into the tail vein according to Table 5 to affect the BBB. Subsequently, Abeta42 (100 μl of 6.9 μM in saline) was infused into the tail vein. Groups 1 and 2 received 2 cycles of Abeta42 treatment.\nDeficits in learning behavior correlated with degenerating neurons in mice treated with pertussis toxin and Abeta42 as compared with untreated mice in the 2-week study. The CognitionWall discrimination learning test was used to test learning behaviors in the mice. Fifteen minutes before the start of the discrimination learning (DL) and reversal learning (RL) task at 16.30 h on the 3th light phase in the Phenotyper, the CognitionWall was placed in front of the reward dispenser spout. After placement, several free rewards were dispensed and standard chow was removed from the feeding station. Mice had to learn to earn their food (Dustless Precision Pellets, 14 mg) by going through the left hole in the wall for the next 2 days (DL1 and DL2). The middle and right hole were deemed incorrect holes and passing through these holes was without any consequences. During the subsequent 2 days, the rewarded hole was switched to the right hole (reversal learning; RL1 and RL2). During DL and RL, one reward was delivered for every fifth entry through the correct hole (FR5 schedule of reinforcement). Mice were not required to make 5 consecutive correct entries (i.e., no chaining requirement). […] Online display of the number of earned rewards was used to evaluate food intake during the experiment. Based on pilot experiments to quantify the number of food rewards required to maintain body weight, mice were fed extra reward pellets when they earn fewer than 100 rewards per day for 2 or more consecutive days. […]"}, "A7R [8]": {"target": "A7R", "conditions": "guinea pig receptors; read-out: Ki, binding to A7R; cited from earlier work"}, "A7R [9]": {"target": "A7R (Rattus norvegicus, UniProt Q05941)", "sequence (Q05941 23-502)": "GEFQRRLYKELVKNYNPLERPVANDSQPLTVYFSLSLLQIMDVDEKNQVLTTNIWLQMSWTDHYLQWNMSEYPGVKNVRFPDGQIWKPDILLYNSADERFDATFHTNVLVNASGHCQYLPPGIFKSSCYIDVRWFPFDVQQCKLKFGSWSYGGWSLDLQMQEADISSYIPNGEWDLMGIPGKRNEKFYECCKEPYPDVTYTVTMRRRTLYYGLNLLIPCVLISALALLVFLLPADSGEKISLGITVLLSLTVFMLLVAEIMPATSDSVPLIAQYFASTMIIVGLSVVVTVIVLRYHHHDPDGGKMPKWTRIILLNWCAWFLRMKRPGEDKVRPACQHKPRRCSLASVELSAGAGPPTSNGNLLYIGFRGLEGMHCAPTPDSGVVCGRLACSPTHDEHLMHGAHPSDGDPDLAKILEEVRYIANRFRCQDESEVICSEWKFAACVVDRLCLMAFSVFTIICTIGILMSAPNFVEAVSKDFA", "conditions": "rat receptors; read-out: Ki, binding to A7R; cited from earlier work"}, "amyloid": {"test_system": "amyloid", "sequence (P05067 672-711)": "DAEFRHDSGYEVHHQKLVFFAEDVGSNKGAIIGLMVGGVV", "conditions": "Alzheimer's disease subjects; Solanezumab: Phase 3, mild Alzheimer's disease; cited from earlier work"}, "ischemic brain": {"test_system": "ischemic brain", "conditions": "rat, in vivo; cited from earlier work"}}, "note": "Values joined by “and” are separate entries in the source; they are usually repeats but may differ in a detail not shown here. Equal values may be shown once. Read-outs that look alike come from different tables or passages of the source.", "data": [{"molecule": "CC(C)c1c(C(=O)Nc2ccccc2)c(-c2ccccc2)c(-c2ccc(F)cc2)n1CC[C@@H](O)C[C@@H](O)CC(=O)O", "note": "[Atorvastatin]", "values": [{"measurement": "Cognitive measures", "setting": "[1]", "result": "did not improve cognitive measures"}]}, {"molecule": "CCN(CC)CCN(Cc1ccc(-c2ccc(C(F)(F)F)cc2)cc1)C(=O)Cn1c(SCc2ccc(F)cc2)nc(=O)c2c1CCC2", "note": "[Darapladib]", "values": [{"measurement": "BBB leakage", "setting": "[2]", "result": "reducing BBB leakage"}, {"measurement": "Progression of atherosclerosis", "setting": "[2]", "result": "blocked the progression of atherosclerosis"}]}, {"molecule": "CC(C)Cc1ccc(C(C)C(=O)O)cc1", "note": "(stereo not drawn) [Ibuprofen]", "values": [{"measurement": "Risk of Alzheimer's disease", "setting": "[3]", "result": "reduce the risk of Alzheimer's disease"}]}, {"molecule": "COc1ccc2c(c1)c(CC(=O)O)c(C)n2C(=O)c1ccc(Cl)cc1", "note": "[Indomethacin]", "values": [{"measurement": "Risk of Alzheimer's disease", "setting": "[3]", "result": "reduce the risk of Alzheimer's disease"}]}, {"molecule": "O=S(=O)(c1ccccc1)c1cnc2c(N3CCNCC3)cccc2c1", "note": "[Intepirdine]", "values": [{"measurement": "Goals of a pivotal trial", "setting": "5HT6 receptor", "result": "failed to meet the goals of a pivotal trial"}]}, {"molecule": "NC1=N[C@@]2(c3cc(NC(=O)c4ccc(F)cn4)ccc3F)COC[C@H]2CS1", "note": "[LY2886721]", "values": [{"measurement": "Reason for stopping the clinical studies", "setting": "beta-secretase", "result": "toxicity"}]}, {"molecule": "CN1CCCC1c1cccnc1", "note": "(stereo not drawn) [Nicotine]", "values": [{"measurement": "Morphologic scores 2 hr", "setting": "SK-N-MC neurons [4]", "result": 2.7}, {"measurement": "Morphologic scores 4 hr", "setting": "SK-N-MC neurons [4]", "result": 2.8}, {"measurement": "Morphologic scores 6 hr", "setting": "SK-N-MC neurons [4]", "result": 2.8}, {"measurement": "Abeta42 immunolabeling scores 2 hr", "setting": "SK-N-MC neurons [5]", "result": 1.7}, {"measurement": "Abeta42 immunolabeling scores 6 hr", "setting": "SK-N-MC neurons [5]", "result": 0.3}]}, {"molecule": "c1cnc2cc3c(cc2n1)[C@@H]1CNC[C@H]3C1", "note": "[Varenicline]", "values": [{"measurement": "Protection of cells from Abeta42 toxicity (observed morphology)", "setting": "SK-N-MC neurons [4]; cells treated with compound and Abeta42, similar at the other time points", "result": "protected from Abeta42 toxicity"}]}, {"molecule": "Abeta40", "values": [{"measurement": "Intracellular accumulation of the peptide", "setting": "[6]; 3 hours", "result": "little detectable accumulation"}]}, {"molecule": "Abeta42", "values": [{"measurement": "Cell death", "setting": "[7]", "result": "cell death"}, {"measurement": "Learning performance in words", "setting": "C57BL/6J mice; 2-week pilot study, 6 mice per group", "result": "did not impact learning impairment"}, {"measurement": "Entries to reach the learning criterion, group value", "setting": "C57BL/6J mice; 2 NA scores estimated as ~500", "result": "~230", "unit": "entries"}, {"measurement": "Entries (entries to 80% correct learning criterion)", "setting": "C57BL/6J mice; individual mouse, 2-week study, NA = too impaired to test, T1, T2 second Abeta42 dose most likely subcutaneous", "result": "307 and 130 and 180 and 264 and 134 and 370"}, {"measurement": "Intracellular accumulation of the peptide", "setting": "[6]; 3 hours", "result": "prominent, irregularly shaped Abeta42-positive deposits"}, {"measurement": "Intracellular accumulation of the peptide", "setting": "[6]; within 30 minutes", "result": "some accumulation of Abeta42-positive material"}, {"measurement": "Ki", "setting": "A7R [8]", "result": 5, "unit": "pM"}, {"measurement": "Ki", "setting": "A7R [9]", "result": 4.1, "unit": "pM"}]}, {"molecule": "Alpha-bungarotoxin", "values": [{"measurement": "Morphologic scores 6 hr", "setting": "SK-N-MC neurons [4]", "result": 2.5}, {"measurement": "Inhibition of Abeta42 accumulation in transfected cells", "setting": "[6]", "result": "inhibited Abeta42 accumulation"}, {"measurement": "Abeta42 immunolabeling scores 1 hr", "setting": "SK-N-MC neurons [5]", "result": "0/1"}, {"measurement": "Abeta42 immunolabeling scores 2 hr", "setting": "SK-N-MC neurons [5]", "result": "1/0"}, {"measurement": "Abeta42 immunolabeling scores 4 hr", "setting": "SK-N-MC neurons [5]", "result": "1/0"}]}, {"molecule": "Solanezumab: yet another anti-amyloid antibody", "values": [{"measurement": "Clinical trial efficacy end points", "setting": "amyloid", "result": "failed to reach statistical significance"}]}, {"molecule": "VEGF", "values": [{"measurement": "Angiogenesis in the ischemic brain", "setting": "ischemic brain", "result": "enhanced angiogenesis"}, {"measurement": "Neurological recovery", "setting": "ischemic brain", "result": "improved neurological recovery"}]}]}
